Legend:
[1] = cited from earlier work
BTSC30M = assay: alamarBlue cell viability, BTSC 30M; format: cell-based, human; conditions: BTSC 30M
Summary of the method: (§1)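 Patient-derived GBM brain tumour stem cells, dissociated spheres seeded at 1500 cells/96-well, or 3000 cells/96-well in one setup. Drug or DMSO vehicle added one day after plating. Viability read by alamarBlue after 72 hrs, triplicate wells.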

BTSC73M = assay: alamarBlue cell viability, BTSC 73M; format: cell-based, human; conditions: BTSC 73M
Summary of the method: as §1

His-tagged STAT5 = assay: surface plasmon resonance (SPR) binding, STAT5; set-up: species or system human; conditions: SPR control experiment
Experimental: Interactions of His-tagged STAT3 with small molecules were investigated using SPR spectroscopy. The binding experiments were carried out on a ProteOn XPR36 (Bio-Rad) biosensor at 25° C. using the HTE sensor chip (Bio-Rad, Ontario, Canada). The flow cells of the sensor chip were loaded with a nickel solution at 30 μL/min for 120 s to saturate the Tris NTA surface with Ni(II) ions. Purified His-tagged STAT3 and STAT5 (SignalChem, British Columbia, Canada) in PBST buffer (PBS with 0.005% (v/v) Tween-20 and 0.001% DMSO pH 7.4) was injected in the first and second channels of the chip respectively in the vertical direction at a flow rate of […] for 300 s, which attained, on average, 8000 resonance unit (RU). After a wash with PBST buffer, inhibitors binding to the immobilized proteins were monitored by injecting a range of concentrations along with a blank at a flow rate of 100 μL/min for 200 s for each of these small molecules. When the injection of the small molecule inhibitor was completed, running buffer was allowed to flow over the immobilized substrates for the non-specifically bound inhibitors to dissociate for 600 s. Following dissociation of the inhibitors, the chip surface was regenerated with an injection of 1 M NaCl at a flow rate of […] for 18 s. […] Data were analyzed using ProteOn Manager Software version 3.1. […]

## Cucurbitacin [Cucurbitacin 1, reference compound]
[1]
  BBB permeability: poor BBB permeability
BTSC30M; read-out: EC50 v.s. 30M
  EC50: 630 nM
BTSC30M; read-out: IC50 (μM) 30M, Table 2, alamarBlue, 72 hrs
  IC50: 0.63 ± 0.08 µM
BTSC73M; read-out: EC50 v.s. 73M
  EC50: 700 nM
BTSC73M; Table 2, alamarBlue, 72 hrs, read-out: IC50 (μM) 73M
  IC50: 0.7 ± 0.06 µM

## CC(C)C[C@H](NC(=O)[C@@H](N)Cc1ccc(OP(=O)(O)O)cc1)C(=O)N1CCC[C@H]1C(=O)N[C@@H](CCC(N)=O)C(=O)N[C@H](C(=O)N[C@H](C(N)=O)C(C)C)[C@@H](C)O [STAT3 peptide sequence]
His-tagged STAT5
  KD (STAT5): No binding

— patent publication US9650399B2, “Salicylic acid derivatives, pharmaceutically acceptable salt thereof, composition thereof and method of use thereof” (The Governing Council of the University of Toronto, priority 2012, dated 2017)
